Like-named read-outs stand apart in the source and are kept apart here.
Legend:
human CRF1 receptors [1] = molecular target: T1, human CRF1 receptors (Homo sapiens, UniProt P34998); assay: Primary screening: inhibition of specific [125I]-Tyr0 sauvagine binding at a single concentration of 100 nM; conditions: 100 nM test compound; membranes from HEK 293 cells stably expressing CRF1 receptors
T1 construct: expressed in transfected cells
T1 sequence (P34998 24-415): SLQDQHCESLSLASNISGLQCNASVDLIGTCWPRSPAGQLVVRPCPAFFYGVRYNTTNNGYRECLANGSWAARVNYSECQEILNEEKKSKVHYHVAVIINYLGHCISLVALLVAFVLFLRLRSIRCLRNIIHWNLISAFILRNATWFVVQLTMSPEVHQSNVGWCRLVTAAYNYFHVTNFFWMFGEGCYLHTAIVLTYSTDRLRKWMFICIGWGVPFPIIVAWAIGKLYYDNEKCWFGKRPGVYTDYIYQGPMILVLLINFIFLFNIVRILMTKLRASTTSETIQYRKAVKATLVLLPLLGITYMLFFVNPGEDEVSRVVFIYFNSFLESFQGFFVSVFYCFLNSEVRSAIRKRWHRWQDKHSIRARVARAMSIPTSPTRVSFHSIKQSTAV
Method: An investigation of the specific binding was carried out in membrane homogenates extracted from human embryonic kidney (HEK 293) cells stably expressing CRF1 receptors, a standard methodology previously detailed in several of our published works. This experimental approach closely adheres to the original Gkountelias et al. procedure.
The CRF1 receptor binding affinities for final target compounds 1–23 were evaluated. First, the ability of the entire test compounds to inhibit the specific binding of the radiolabelled ligand [^125I]-Tyr^0 sauvagine to membranes from HEK 293 cells stably expressing the CRF1 receptors was evaluated at a single concentration of 100 nM.
Figure 5 % inhibition of [^125I]-Try^0 sauvagine-specific binding by 100 nM of test compounds on membranes from HEK293 stably expressing human CRF1 receptors. In the absence of the test compound, the inhibition is 0%.
In this protocol, a radiolabeled agonist, which is [^125I]-Tyr^0-sauvagine is used. The cell culture medium that was used to grow these cells consisted of DMEM/F12 (1:1) supplemented with 10% bovine calf serum, 3.15 g/L glucose, and […] of the antibiotic geneticin. The cells were then incubated at a temperature of 37 °C with 5% CO2. After a suitable time was given to grow the expected number of cells to the required cell density, the cells were washed with phosphate-buffered saline (PBS) at a neutral pH of 7.2–7.3. This was followed by treatment with 2 mM EDTA containing PBS (PBS/EDTA). The suspension of cells was pitted under centrifugation at a speed of 1000× g for a period of 5 min, after which the resulting pellets were allowed to be homogenized in 1.5 mL of buffer H with the following composition: 20 mM HEPES, 10 mM MgCl2, 2 mM EGTA, 0.2 mg/mL bacitracin antibiotic, and 0.93 mg/mL aprotinin at pH 7.2 at 4 °C. The homogenizer used was a Janke & Kunkel IKA Ultra Turrax T25 homogenizer (IKA Werke GmbH & Co. KG, Staufen, Germany). The homogenates were then put into a centrifuge to be centrifuged at a speed of 16,000× g, for a period of 10 min, at 4 °C. The resulting membrane pellets were again suspended in a homogenizer in 1 mL of buffer B, which is buffer H containing BSA (0.1%) at a pH of 7.2 at 20 °C. After that, the membrane suspensions were diluted using buffer B and 50 μL aliquots of the suspensions and 20–25 pM of the radiolabeled ligand [^125I]-Tyr^0sauvagine with (test) and then without (positive control) the compounds to be evaluated at a single concentration of 100 nM.

human CRF1 receptors [2] = molecular target: T1, human CRF1 receptors; assay: Competition binding of [125I]-Tyr0 sauvagine under equilibrium conditions (secondary assay); conditions: [125I]-Tyr0 sauvagine competition, HEK 293 membranes expressing CRF1 receptors
Method: In the second assay, the inhibitory effects measured by the lead compounds were compared to those of the standard drug antalarmin.
Figure 6 Competitive binding isotherms of compounds 2, 5, and 14 (a), compounds 10 and 23 (b), compounds 19 and 20 (c) and 21 and 22 (d) to human CRF1 receptors. Antalarmin was used as a standard drug.
In this competitive binding assay, different and increasing concentrations of the test compounds were used. The final volume of the tubes was adjusted to 0.2 mL using buffer B (the composition mentioned earlier). The test mixtures were then incubated at a temperature of 21 °C for a period of two hours. Then it was filtered through presoaked Whatman 934AH filter papers (in a solution of 0.3% polyethylene imine for 1 h at a temperature of 4 °C). The filter papers were then washed with a solution of 0.5 mL of ice-cold PBS containing 0.01% Triton X-100, and the washing process was repeated three times at pH 7.1. To measure the radioactivity, a gamma radiation counter was utilized. The quantity of membranes used was adjusted to make sure that the specific binding is always equal to or less than 10% of the total concentration of the added radiolabeled sauvagine. The specific [^125I]-Tyr^0-sauvagine binding was defined as the total binding minus the non-specific binding in the presence of 1000 nM of the standard antagonist Antalarmin. Non-linear regression analysis was used for data analysis, and Log IC50 values for the test compounds in comparison to the standard antagonist antalarmin were calculated by fitting the data from the competition studies into a one-site competition model. The statistical analysis was performed using Prism 4.0 (GraphPad Software, San Diego, CA, USA).
Statistical analysis was performed using Prism 4.0 (Graph Pad Software, San Diego, CA, USA). Non-linear regression analysis was used in the competitive binding studies. Log IC50 values were calculated by fitting the data from the competition studies to a one-site competition model.

CRF1R = system: CRF1R; design: method as in PMID 7846062; conditions: cited from earlier work

| Compound | inhibition at 0.1 µM (human CRF1 receptors [1]) | IC50 (human CRF1 receptors [2]; Log IC50 as printed (negative sign), read-out: Log IC50 ± SE (converted)) | IC50 (human CRF1 receptors [2]; read-out: IC50) | % inhibition of [125I]-Tyr0 sauvagine-specific binding (human CRF1 receptors [1]) | binding affinity to CRF1R relative to binding to CRF2R (CRF1R) |
| --- | --- | --- | --- | --- | --- |
| CCCN(CCC)c1nc(C)nc2c1sc(=NC)n2-c1ccc(Cl)cc1Cl [Compound 2, 7-(N,N-Dipropylamino)-2-(methylimino)-5-methyl-3-(2,4-dichlorophenyl)-2,3-dihydrothiazolo[4,5-d]pyrimidine] | > 50% | 6.03 nM | 6.1 nM |  |  |
| CCCN(CC1CC1)c1nc(C)nc2c1s/c(=N\C)n2-c1ccc(Cl)cc1Cl [Compound 5, 7-(N-Propyl-N-(cyclopropylmethyl))amino-2-(methylimino)-5-methyl-3-(2,4-dichlorophenyl)-2,3-dihydrothiazolo[4,5-d]pyrimidine] | > 50% |  | 11.1 nM | significantly higher inhibitory effects than compounds 9 and 17 |  |
| CN=c1sc2c(N(CCOC)CCOC)nc(C)nc2n1-c1ccc(C(C)C)cc1Br [Compound 10, 7-(N,N-Bis(2-methoxyethyl)amino)-2-(methylimino)-5-methyl-3-(2-bromo-4-isopropylphenyl)-2,3-dihydrothiazolo[4,5-d]pyrimidine] | > 50% |  | 31 nM |  |  |
| CCCCCN(CCCCC)c1nc(C)nc2c1sc(=NC)n2-c1ccc(C(C)C)cc1Br [Compound 11, 7-(N,N-Dipentylamino)-2-(methylimino)-5-methyl-3-(2-bromo-4-isopropylphenyl)-2,3-dihydrothiazolo[4,5-d]pyrimidine] |  |  |  | reduced activity compared to compounds 10 and 13 |  |
| Corticotropin-releasing factor [CRF] |  |  |  |  | almost eight times higher |

Continued, in another order:

| inhibition at 0.1 µM (human CRF1 receptors [1]) | IC50 (human CRF1 receptors [2]; Log IC50 as printed (negative sign), read-out: Log IC50 ± SE (converted)) | IC50 (human CRF1 receptors [2]; read-out: IC50) | Compound | % inhibition of [125I]-Tyr0 sauvagine-specific binding (human CRF1 receptors [1]) | binding affinity to CRF1R relative to binding to CRF2R (CRF1R) |
| --- | --- | --- | --- | --- | --- |
| > 50% |  | 144 nM | CCCCN(CC)c1nc(C)nc2c1sc(=NC)n2-c1ccc(C)cc1C [Compound 14, 7-(N-Butyl-N-ethylamino)-2-(methylimino)-5-methyl-3-(2,4-dimethylphenyl)-2,3-dihydrothiazolo[4,5-d]pyrimidine] |  |  |
| > 50% |  | 41.1 nM | CCCC(CCC)Nc1nc(C)nc2c1sc(=NC)n2-c1ccc(C)cc1C [Compound 19, 7-(N-Heptan-4-yl)amino-2-(methylimino)-5-methyl-3-(2,4-dimethylphenyl)-2,3-dihydrothiazolo[4,5-d]pyrimidine] |  |  |
| > 50% |  | 9.16 nM | CCCCN(CC)c1nc(C)nc2c1sc(=NC)n2-c1ccc(OC)cc1C [Compound 20, 7-(N-Butyl-N-ethylamino)-2-(methylimino)-5-methyl-3-(2-methyl-4-methoxylphenyl)-2,3-dihydrothiazolo[4,5-d]pyrimidine] |  |  |
| > 50% |  | 13.1 nM | CCCN(CCC)c1nc(C)nc2c1sc(=NC)n2-c1ccc(OC)cc1C [Compound 21, 7-(N,N-Dipropylamino)-2-(methylimino)-5-methyl-3-(2-methyl-4-methoxylphenyl)-2,3-dihydrothiazolo[4,5-d]pyrimidine] |  |  |
| > 50% |  | 91.6 nM | CCCN(CC1CC1)c1nc(C)nc2c1s/c(=N\C)n2-c1ccc(OC)cc1C [Compound 22, 7-(N-Propyl-N-(cyclopropylmethyl))amino-2-(methylimino)-5-methyl-3-(2-methyl-4-methoxylphenyl)-2,3-dihydrothiazolo[4,5-d]pyrimidine] | significantly higher inhibitory effects than compounds 9 and 17 |  |
| > 50% |  | 111 nM | CCC(CC)Nc1nc(C)nc2c1sc(=NC)n2-c1ccc(OC)cc1C [Compound 23, 7-(N-Pentan-3-yl)amino-2-(methylimino)-5-methyl-3-(2-methyl-4-methoxylphenyl)-2,3-dihydrothiazolo[4,5-d]pyrimidine] |  |  |
|  |  | 16.6 nM | CCCCN(CC)c1nc(C)nc2c1c(C)c(C)n2-c1c(C)cc(C)cc1C [antalarmin, reference compound] |  |  |

From PMC11314199, “Design, Synthesis, and Biological Evaluations of Novel Thiazolo[4,5-d]pyrimidine Corticotropin Releasing Factor (CRF) Receptor Antagonists as Potential Treatments for Stress Related Disorders and Congenital Adrenal Hyperplasia (CAH)” (Molecules, 2024)
